These results are taken from patent US4945098A, “Novel propane-1,3-diol derivatives and use” (Leo Pharmaceutical Products Ltd. A/S (Lovens Kemiske Fabrik, priority 1985, dated 1990).

SMILES strings stand for the structures.

This data set can be described thus: hygroscopicity. Particulars: crystals from acetone/ether, monohydrate. It counts as physicochemical.

Regarding `C=C(COC(=O)CCCCCC[n+]1ccsc1)COC(=O)NCCCCCCCCCCCCCCCCCC` [Example 46, 1-Octadecylaminocarbonyloxy-3-[7-(3-thiazolio)heptanoyloxy]-2-methylenepropane bromide], the hygroscopicity entry is “Hygroscopic”.
